In patent US7112553B1, “Pesticidal indazole or benzotriazole derivatives” (Syngenta Limited, priority 1999, dated 2006):

Assays:
[1] = system: Pyricularia oryzae (PYRIOR) on rice; format: in vivo; details: 100 ppm foliar spray; rice inoculated one day after chemical application (Prot)
[2] = system: Phytophthora infestans lycopersici (PHYTIN) on tomatoes; format: in vivo; details: 100 ppm foliar spray; tomatoes inoculated one day after chemical application (Prot)
[3] = system: Puccinia recondita (PUCCRT) on wheat; details: in vivo
[4] = system: Uncinula necator (UNCINE) on vines; details: in vivo

SMILES | PRCO (Percentage Reduction from Control) PYRIOR Prot [1] [%] | PRCO (Percentage Reduction from Control) PHYTIN Prot [2] [%] | PRCO (Percentage Reduction from Control) PUCCRT Prot [3] [%] | PRCO (Percentage Reduction from Control) UNCINE Erad [4] [%]
Cc1nsc(NC(=O)Cc2ccc3nn(C)nc3c2)c1Cl [Sample 2] | 87 |  |  | 
Cc1nsc(NC(=O)Cc2ccc3nn(-c4ccc(C(F)(F)F)cc4Cl)nc3c2)c1Cl [Sample 11] | 100 |  |  | 
CCC(C)n1nc2ccc(CC(=O)Nc3snc(C)c3Cl)cc2n1 (stereo not shown) [Sample 31] |  | 100 | 100 | 100
CCCC(C)n1nc2ccc(CC(=O)Nc3snc(C)c3Cl)cc2n1 (stereo not shown) [Sample 30] |  | 100 | 100 | 100
Cc1nsc(NC(=O)Cc2ccc3nn(CC(F)(F)F)nc3c2)c1Cl [Sample 8] | 100 |  |  | 
CCCCCn1nc2ccc(CC(=O)Nc3snc(C)c3Cl)cc2n1 [Sample 9] | 100 | 100 | 99 | 
CCCn1nc2ccc(CC(=O)N=c3sn(COCC)c(C)c3Cl)cc2n1 [Sample 34, N-[2-ethoxymethyl-4-chloro-3-methylisothiazolin-5-ylidene]-(2-propylbenzo-triazol-5-yl)acetamide] | 93 | 81 |  | 100
CCCn1nc2ccc(CC(=O)Nc3snc(C)c3Cl)cc2n1 [Sample 1, N-(4-chloro-3-methylisothiazol-5-yl)-(2-propylbenzotriazol-5-yl)acetamide] | 100 | 100 | 100 | 
Cc1nsc(NC(=O)Cc2ccc3nn(Cc4ccc(F)cc4)nc3c2)c1Cl [Sample 4] | 92 |  |  | 
